# “Also recorded” adds a separate entry of the source. Read-outs that look alike come from different tables or passages of the source.
# Columns and labels:
# human rI-domain [1] = target: T1, human rI-domain (Homo sapiens, UniProt P11215); experiment: Surface plasmon resonance, immobilized human rI-domain; format: binding
# T1 construct: Recombinant human and mouse I-domain proteins were made and purified as previously described; made in house
# Description: (§1) SPR analyses were performed using a Biacore S200 system (GE Healthcare Life Sciences, Parramatta, NSW, Australia). Samples were analyzed at 25°C in phosphate-buffered saline (PBS) at a flow rate of 10 μl/min and by using single-cycle kinetics. Human rI-domain, mouse rI-domain, and human rCR3 were immobilized onto separate cells of a Series S CM5 sensor chip using an NHS capture kit (both from GE Healthcare Life Sciences) for purified pilin experiments. For experiments in which pilin-glycan-like structures were examined, human rI-domain and rCR3 were immobilized onto separate cells of a CM5 chip. A blank immobilization was used as a control/reference on all chips. MS11 wild-type and MS11 pglA pilin were serially diluted from 2 μM to 0.125 μM in PBS. Glycans (Dextra Laboratories, Reading, UK) (Table 2), resembling the gonococcal Gal(α1-3)diNAcBac pilin-linked glycan, were serially diluted from 2 μM to 0.0078 μM in PBS. Affinity data points were taken at 15 s after injection to avoid an artefactual signal resulting from bulk transport. SPR sensorgrams were analyzed using Biacore Evaluation software (GE Healthcare Life Sciences).
# G2 peptide = target: T2, G2 peptide (Homo sapiens, UniProt P11215); experiment: SPR of glycans over immobilized biotin-AhxG2-streptavidin complex; format: binding; conditions: for KD, G2 Peptide: synthetic glycans over biotin-Ahx-labeled G2 peptide complexed with streptavidin, NCDI = no concentration-dependent interaction
# T2 construct: corresponds to amino acids Arg197 to Pro211 of human CD11b
# Description: To assess the kinetics of the selected peptides, biotinylated versions of each peptide were synthesized. This enabled immobilization via streptavidin onto Series S CM5 sensor chips. Purified biotin-AhxG2 (G2 peptide with a six-carbon spacer linked to biotin) (Table S1), was incubated with streptavidin (Sigma, Castle Hill, NSW, Australia) for 2 h on ice at a 12:1 molar ratio of peptide to protein. Unreacted peptide was removed using a 10-kDa-molecular-weight-cutoff size exclusion column (EMD Millipore, Bayswater, VIC, Australia). Semi-native SDS-PAGE analysis was used to confirm peptide binding to streptavidin. To this end, streptavidin-peptide complexes were added to nonreducing NuPAGE sample buffer (Life Technologies, Scoresby, VIC, Australia). To ensure that peptide-streptavidin complexes were not denatured, heat was not applied before loading onto SDS-polyacrylamide 4% to 12% gradient gels (Life Technologies). A streptavidin-biotin complex was used as a reference control for the molecular weight shift that could be attributed to the peptide. Serially diluted glycans (1 μM to 0.0625 μM) were flowed over sensor chips. Other aspects of SPR analysis were as described above.
# [2] = target: T3, human rCR3 (integrin αMβ2) (Homo sapiens, UniProt P11215); experiment: Surface plasmon resonance, immobilized human rCR3; format: binding
# T3 construct: purchased R&D Systems
# Description: as §1
# [3] = target: T4, human rCR3 (integrin αMβ2) (Homo sapiens, UniProt P05107+P11215); experiment: Surface plasmon resonance, immobilized human rCR3; format: binding
# T4 construct: purchased R&D Systems
# Description: as §1
# [4] = tested on: N. gonorrhoeae adherence to CHO-CR3 cells; experiment: Fluorometric adherence assay, CHO-CR3 cells; format: cell-based, Chinese hamster; conditions: for Gonococcal adherence to CHO-CR3 cells (fluorescence): 1-h infection with GFP-expressing N. gonorrhoeae, competitor added simultaneously
# Description: (§2) Fluorometric adherence assays were performed essentially as described previously ([36]). In brief, N. gonorrhoeae MS11 gfp was used to challenge (1 h) Pex or CHO cells simultaneously with peptide or drug competitor. Infected (devoid of peptide or drug) and uninfected (with peptide, drug, or dimethyl sulfoxide [DMSO] vehicle) control cell assays were treated in parallel with competitive peptide/drug inhibition assays. Fluorescence (485 nm excitation, 528 nm emission) intensity, corresponding to bacterial adherence, was recorded using a Synergy HT multimode microplate reader (BioTek Instruments, Winooski, VT, USA). Blank wells, devoid of Pex or CHO cells, were inoculated with bacteria and served as a control for nonspecific binding. Each assay was performed in triplicates on 3 separate occasions. Peptides used are described in Table S1. A nonparametric analysis of variance (ANOVA) was used to determine the statistical significance of the calculated mean of bacterial adherence.
# [5] = tested on: N. gonorrhoeae adherence to Pex cells; experiment: Fluorometric adherence assay, Pex cells; format: cell-based, human; conditions: for Gonococcal adherence to Pex cells (fluorescence): 1-h infection with GFP-expressing N. gonorrhoeae, competitor added simultaneously
# Description: as §2
# rCR3 = target: T5, rCR3 (Homo sapiens, UniProt P11215); experiment: Competitive SPR peptide library screen with galactobiose, rCR3; format: binding; conditions: peptide-galactobiose molar ratio 25:1
# T5 construct: purchased R&D Systems
# Description: (§3) The human I-domain sequence (NP_000623.2, amino acids Gly127 to Ala325 of CD11b) was used to generate a peptide library (Mimotopes; Mulgrave, VIC, Australia). Each peptide comprised 15 amino acids, with a 5-amino-acid sliding window, to give a 10-amino-acid overlap down the sequence, for a total of 40 peptides (see Table S1 in the supplemental material). Competitive SPR (Biacore T200 system; GE Healthcare Life Sciences) was used to screen the blocking potential of the peptide library. To this end, 100 μg/ml of each peptide was mixed with […] (2 μM) α1-3 galactobiose and flowed over immobilized human rI-domain and rCR3 on a Series S CM5 chip. Flow cell 1 was a blank immobilization/reference cell. Blocking peptides were defined as those peptides in which the peptide plus glycan response was less than those for the peptide and glycan alone. SPR sensorgrams were analyzed as noted above.
# human rI-domain [6] = target: T1, human rI-domain; experiment: Competitive SPR peptide library screen with galactobiose, rI-domain; format: binding; conditions: peptide-galactobiose molar ratio 25:1
# Description: as §3
# human rI-domain [7] = target: T1, human rI-domain; experiment: Direct competition SPR, drug versus N. gonorrhoeae MS11 pilin; format: binding; conditions: drug and pilin at 1 μM
# [8] = tested on: N. gonorrhoeae adherence to CHO-neo cells; experiment: Fluorometric adherence assay, CHO-neo cells; format: cell-based, Chinese hamster; conditions: 1-h infection; cells do not express CR3
# Description: as §2
# [9] = tested on: N. gonorrhoeae infection of Pex cells
# Description: Infection studies were performed as previously described with modification using a multiplicity of infection of 100 ([44]). To establish infection before treatment, Pex cells were challenged with N. gonorrhoeae for 90 min. The infection medium was then removed, the cells were rinsed thrice, and fresh medium containing 0.1% DMSO (vehicle control), carbamazepine (100 pM to 100 μM), methyldopa (100 pM to 100 μM), or ceftriaxone (0.1 μg/ml or 0.5 μg/ml, positive control) was added. Infections then proceeded for an additional 24 h or 48 h, after which, the infection medium was removed. Pex cell monolayers were subsequently lysed, serial dilutions of the Pex cell lysates were plated, and viable gonococci were enumerated by counting CFU after 48 h of incubation (37°C, 5% CO2). For sequential infection assays, viable bacterial colonies that survived a treatment assay were harvested from the enumeration (CFU) plates and used to inoculate new Pex cell monolayers. For these sequential assays, each infection (the original infection or the infection with bacteria that had survived the original infection) proceeded for 24 h. Pex cells were then processed, and bacteria were enumerated, as described above. For all assays, the percentage of N. gonorrhoeae that survived carbamazepine, methyldopa, or ceftriaxone treatment was determined as a function of bacteria that survived DMSO treatment (set to 100%). All assays were performed in triplicates on 3 separate occasions. A nonparametric ANOVA was used to determine the statistical significance of bacterial survival.
# human rI-domain [10] = target: T1, human rI-domain; experiment: Repurposed drug SPR against human CR3 I-domain (single-cycle kinetics); conditions: 10 nM to 0.625 nM, read-out: KD, binding to human rI-domain
# Description: Human rI-domain was immobilized onto a CM5 sensor chip with a blank control flow cell as described above. A combination of two FDA-approved drug libraries, Microsource-CPOZ (2,400 drugs) and ML Drug (741 drugs), was purchased from Compounds Australia. […] A single-concentration injection screen (yes/no) binding assay was performed. Binding was determined based on the response unit shift (equal to the molecular weight-corrected response units of the positive-control glycan) of the stability of the binding phase of the dissociation cycle. […] For carbamazepine and methyldopa, saturation occurred between 1.6 nM and 8 nM, and so a new concentration range (10 nM to 0.625 nM) was tested. […] All SPR sensorgrams and result plots described above were analyzed with Biacore S200 evaluation software (GE Healthcare Life Sciences). A literature review was used to evaluate the remaining drugs for known long-term safety in humans and known therapeutic concentrations.
# N. gonorrhoeae strains = experiment: Well diffusion assay; format: cell-based, Neisseria gonorrhoeae; conditions: 100 pM to 100 μM in wells, overnight
# Description: Well diffusion assays were performed essentially as described previously ([56]). Briefly, N. gonorrhoeae strains were spread uniformly across the surfaces of GC agar plates at a culture density of 10^7 bacteria per ml. Wells were then punctured within the agar surface to which carbamazepine or methyldopa (100 pM to 100 μM), 0.2 μg/ml ceftriaxone, 10 μg/ml ciprofloxacin, or 1% DMSO (vehicle control) was added. Following an overnight incubation (37°C, 5% CO2), inhibition of N. gonorrhoeae growth was measured as the diameter (in millimeters) of the area of clearing surrounding (and inclusive of) each well on each agar plate, i.e., the zone of inhibition (ZOI). For agar plates in which a ZOI was not visible, data were recorded as the diameter of the well (6 mm). Assays were performed in triplicates on 3 separate occasions. Statistical significance of data obtained was determined using a Student's t test.
# [11] = synthetic glycans, NCDI = no interaction at any concentration between 0.0078 μM and 2 μM
# [12] = synthetic glycans, NCDI = no interaction at any concentration between 0.0078 μM and 2 μM, read-out: KD, rI-domain
# [13] = synthetic glycans, NCDI = no interaction at any concentration between 0.0078 μM and 2 μM, read-out: KD, rCR3
molecule,measurement,setting,value
OC[C@H]1O[C@@](CO)(O[C@H]2O[C@H](CO)[C@@H](O)[C@H](O)[C@H]2O)[C@@H](O)[C@@H]1O [Sucrose],"KD, rI-domain",human rI-domain [1]; [11],did not bind and NCDI
same,"KD, G2 Peptide",G2 peptide,NCDI
same,"KD, G2 Peptide",G2 peptide; listed as sucrose,no concentration-dependent interaction
same,"KD, rCR3",[2]; [11],did not bind and NCDI
OC[C@H]1O[C@@H](O[C@H]2[C@H](O)[C@@H](O)[C@@H](O)O[C@@H]2CO)[C@H](O)[C@@H](O)[C@H]1O [αLactose],Kd,human rI-domain [1]; [12],202 ± 54.4 nM
same,Kd,[3]; [13],79.8 ± 15 nM
"H-CATFTAPGRTSTFSF-OH [P2, H-CATFTAPGRTSTFSF-OH]",Gonococcal adherence to CHO-CR3 cells (fluorescence),[4],nonblocking
same,Gonococcal adherence to Pex cells (fluorescence),[5],nonblocking
MS11 wild type: N. gonorrhoeae MS11 pilin modified with the Gal(α1-3)diNAcBac disaccharide glycan,Kd,"[2]; purified pilin 0.125-2 μM, NCDI = no concentration-dependent interaction (no binding of ≤2 μM), read-out: KD, Human CR3",907 ± 43.8 nM
CC(=O)NC1C(O)OC(CO)C(OC2OC(CO)C(O)C(OC3OC(CO)C(O)C(O)C3O)C2O)C1O (centres unmarked) [Linear B-2 Trisaccharide],Kd,human rI-domain [1]; [12],293 ± 13.1 nM
same,Kd,[3]; [13],44.8 ± 18.1 nM
H-CNNPSSTVPHNVDFH-OH [P1],Gonococcal adherence to CHO-CR3 cells (fluorescence),[4],nonblocking
same,Gonococcal adherence to Pex cells (fluorescence),[5],nonblocking
CO[C@H]1O[C@H](CO)[C@H](O)[C@H](O)[C@H]1O [Methyl-α-D-galactose],Kd,human rI-domain [1]; [12],269 ± 85.1 nM
same,Kd,G2 peptide,118 ± 11.8 nM
same,Kd,[3]; [13],56.5 ± 19.8 nM
H-RIHFTFKEFQNNPNP-OH [G2],"Gonococcal adherence to CHO-CR3 cells, difference from uninfected cells","[4]; 100 μM peptide, P ≥ 0.67",not significantly
same,Gonococcal adherence to CHO-CR3 cells (fluorescence),[4],decreased; also recorded: dose-dependent reduction
same,Blocking of galactobiose binding to rCR3,rCR3,able to block
same,Blocking of galactobiose binding to rI-domain,human rI-domain [6],able to block
same,"Gonococcal adherence to Pex cells, difference from uninfected cells","[5]; 100 μM peptide, P ≥ 0.45",not significantly
same,Gonococcal adherence to Pex cells (fluorescence),[5],decreased; also recorded: dose-dependent reduction
CC(=O)NC1C(O)OC(CO)C(OC2OC(CO)C(OC3OC(CO)C(O)C(O)C3O)C(O)C2O)C1O (centres unmarked) [P1 Antigen],Kd,human rI-domain [1]; [12],202 ± 48.7 nM
same,Kd,[3]; [13],48.3 ± 14.2 nM
"OCC1OC(OC2C(O)C(CO)OC(OC3C(CO)OC(OC4C(O)C(O)OC(CO)C4O)C(O)C3O)C2O)C(O)C(O)C1O (stereo not drawn) [α1-3,β1-4,α1-3 Galactotetraose]",Kd,human rI-domain [1]; [12],320 ± 67.2 nM
same,Kd,[2]; [13],26.2 ± 9.18 nM
OC[C@H]1O[C@@H](O[C@H]2[C@H](O)[C@@H](O)[C@H](O)O[C@@H]2CO)[C@H](O)[C@@H](O)[C@H]1O [Lactose],Kd,human rI-domain [1]; [12],117 ± 13.3 nM
same,Kd,[3]; [13],138 ± 33.7 nM
OCC1OC(OC2C(O)C(O)OC(CO)C2O)C(O)C(O)C1O (centres unmarked) [Galactobiose],Kd,human rI-domain [1],229 ± 73.1 nM
same,Kd,G2 peptide,174 ± 45.1 nM
same,Kd,[3],68.7 ± 1.75 nM
C[C@](N)(Cc1ccc(O)c(O)c1)C(=O)O [methyldopa],Blocking of the interaction of N. gonorrhoeae MS11 pilin with rCR3 or rI-domain,human rI-domain [7],completely blocked
same,Gonococcal adherence to CHO-neo cells (fluorescence),[8],but not to CHO-neo cells
same,Gonococcal adherence to CHO-CR3 cells (fluorescence),[4],decreased in a dose-dependent manner; also recorded: CR3- and dose-dependent reduction
same,N. gonorrhoeae strain MS11 survival,"[9]; 24 h posttreatment, 100 pM to 100 μM",dose-dependent reductions
same,"Numbers of viable gonococci, low-passage-number gonococcal isolates","[9]; 24 h posttreatment, established Pex cell infections",significant reductions
same,Efficacy in treating multidrug-resistant gonococci compared with ceftriaxone,[9]; panel of multidrug-resistant N. gonorrhoeae isolates,more effective than ceftriaxone
same,Kd,human rI-domain [10],1.01 nM
same,Gonococcal adherence to Pex cells (fluorescence),[5],decreased in a dose-dependent manner
same,Gonococcal adherence to Pex cells (fluorescence),[5]; listed as Methyldopa,dose-dependent decrease
same,Effect on gonococcal viability in the absence of Pex cells (zone of inhibition),N. gonorrhoeae strains,no effect; also recorded: neither carbamazepine nor methyldopa had an effect
